The species entered for test [1] is Homo sapiens. In words: Selectivity ratio of IC50 for PI3Kbeta (unknown origin) to IC50 for PI3Kgamma (unknown origin).
For test [2], the species on record is Homo sapiens. Kind of test: Selectivity ratio of IC50 for PI3Kdelta (unknown origin) to IC50 for PI3Kgamma (unknown origin).
Test [3] deals with T1, Phosphatidylinositol 4,5-bisphosphate 3-kinase catalytic subunit gamma isoform (Homo sapiens, UniProt P48736). In words: Inhibition of PI3Kgamma in human THP1 cells assessed as reduction in MCP1-induced Akt phosphorylation at Thr308/Ser473 residue preincubated for 1 hr followed by MCP1 stimulation for 3 mins by FACS analysis. It is filed as cell-based. On the technique in general: A flow cytometer gives signals particle by particle.

Test [4] is filed under the species Homo sapiens. Kind of test: Selectivity ratio of IC50 for PI3Kalpha (unknown origin) to IC50 for PI3Kgamma (unknown origin).
The target in test [5] is T1, Phosphatidylinositol 4,5-bisphosphate 3-kinase catalytic subunit gamma isoform. In words: Inhibition of PI3Kgamma (unknown origin) using PIP2 as substrate measured after 15 mins in presence of [33P]ATP by scintillation counting method.

T1 sequence (P48736 whole entry, canonical isoform): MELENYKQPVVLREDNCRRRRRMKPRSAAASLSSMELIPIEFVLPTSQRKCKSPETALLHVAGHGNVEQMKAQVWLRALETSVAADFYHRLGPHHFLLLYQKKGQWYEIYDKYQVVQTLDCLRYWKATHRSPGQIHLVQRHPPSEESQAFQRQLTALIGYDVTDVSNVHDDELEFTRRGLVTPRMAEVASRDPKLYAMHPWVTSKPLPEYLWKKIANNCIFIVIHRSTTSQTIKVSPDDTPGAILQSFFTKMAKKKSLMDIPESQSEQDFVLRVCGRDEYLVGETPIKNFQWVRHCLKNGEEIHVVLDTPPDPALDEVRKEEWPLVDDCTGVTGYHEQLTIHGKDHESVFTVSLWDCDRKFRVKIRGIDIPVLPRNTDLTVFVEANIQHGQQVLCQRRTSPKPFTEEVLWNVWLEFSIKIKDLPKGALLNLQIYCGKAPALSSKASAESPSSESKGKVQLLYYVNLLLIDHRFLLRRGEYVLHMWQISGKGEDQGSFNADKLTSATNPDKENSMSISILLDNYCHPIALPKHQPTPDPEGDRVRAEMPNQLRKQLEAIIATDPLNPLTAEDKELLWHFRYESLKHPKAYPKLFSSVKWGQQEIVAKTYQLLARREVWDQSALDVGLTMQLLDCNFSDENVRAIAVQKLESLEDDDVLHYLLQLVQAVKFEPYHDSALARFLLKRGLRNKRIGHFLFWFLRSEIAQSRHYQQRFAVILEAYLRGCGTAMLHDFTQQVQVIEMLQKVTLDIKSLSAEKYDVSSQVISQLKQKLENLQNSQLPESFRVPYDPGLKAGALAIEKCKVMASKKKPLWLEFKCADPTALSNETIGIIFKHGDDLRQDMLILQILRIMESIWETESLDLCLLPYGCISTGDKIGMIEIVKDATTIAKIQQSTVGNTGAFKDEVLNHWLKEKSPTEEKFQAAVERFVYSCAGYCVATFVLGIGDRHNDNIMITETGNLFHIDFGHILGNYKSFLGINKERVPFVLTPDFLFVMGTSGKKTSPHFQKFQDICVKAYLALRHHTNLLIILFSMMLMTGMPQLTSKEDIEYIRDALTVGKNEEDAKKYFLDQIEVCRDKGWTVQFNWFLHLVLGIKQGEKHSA

As to `COc1cc(-c2cc3c(c(C)n2)C(=O)N(c2cnn(CC(F)(F)F)c2)C3)cnc1OC`, the values for the Ratio IC50 in test [1], in test [2] and in test [4] were 8, 6 and 15, respectively. For the same molecule, the IC50 (in general, the concentration that inhibits the measured activity by half) in test [3] was found to be 270 nM. Also, in test [5], the Ki (usually the equilibrium dissociation constant of an inhibitor or competing ligand from its target) came out at 14 nM.

As for `COc1cc(-c2ccc3c(n2)CN(c2cnn(CC(F)(F)F)c2)C3=O)cnc1OC`, the figures for the Ratio IC50 in test [1], in test [2] and in test [4] were 31, 13 and 65, respectively. Further, in test [3], the IC50 was 47 nM.

The values are drawn from ChEMBL document CHEMBL4382294, “Synthesis of a 6-Aza-Isoindolinone-Based Inhibitor of Phosphoinositide 3-Kinase γ via Ruthenium-Catalyzed [2 + 2 + 2] Cyclotrimerization” (ACS Med Chem Lett, 2019).
